{"source": "patent US9562033B2", "about": "“Inhibitors of viral replication, their process of preparation and their therapeutical uses” (LABORATOIRE BIODIM, priority 2012, dated 2017)", "data": [{"tested_on": "NL4-3 strain of HIV-1", "test": "HIV-1 replication inhibition: cyto-protection of MT4 cells infected with NL4-3 virus (CellTiter-Glo viability assay)", "assay_type": "cell-based", "details": "Human immunodeficiency virus 1, NL43, 120 h, concentration leading to 50% of cyto-protection, 5 days incubation", "procedure": "The antiviral activity, particularly against HIV, of compounds according to the invention is evaluated by the protocol described below.\nPreparation of Virus Stock of the NL4-3 Strain of HIV-1\nThe virus was prepared as described in Lopez et al (Lopez et al, Proc Natl Acad Sci USA., 2006, 103(40):14947-52, by transfecting 2×10^6 293 T cells (CRL-1573, ATCC) with following modifications: 6 μg of NL4-3 proviral DNA molecular clone were mixed with Fugene 6 transfection reagent from Roche, and used according to manufacturer's instructions. Forty eight hours later, transfected cell supernatants were harvested, filtered through 0.45-μm-pore-size filters, quantified for HIV-1 p24 antigen by using a Innotest HIV antigen mAb assay (Ingen) according to manufacturer's instructions, and used in infection experiments.\nPreparation of Compounds:\nSerial dilutions of compounds to be tested were prepared in complete RPMI medium from 10 mM DMSO stock solutions, and distributed in a volume of 20 µl in 96 well Falcon 353072 Microtest™ tissue culture plate, in order to get 0.5% DMSO final concentration in each well, after the addition of infected cells. Control wells contained also 0.5% DMSO final concentration but no compound.\nMT4 cells (from the NIH AIDS Research and Reference Reagent Program) in RPMI complete medium were counted (10×10^6 cells per well in Falcon 353047 Multiwell™ 24 well) and infected for 2 hours at 37°, at a multiplicity of infection (moi) of 0.0001-0.00001. Cells were then centrifuged 3 min at 3000 rpm, and washed two times in 1 ml PBS to remove viruses that have not entered in cells. Infected cells were resuspended in complete RPMI at 1.25×10^6 cells/ml, and 80 µl of infected cells were distributed in each well containing compounds to be tested or control wells. The plates were then incubated at 37° for 5 days.\nAssay Used to Measure the Inhibition of HIV Replication by the Compounds\n(according to Gregg S. Jones et al., Antimicrobial Agents and Chemotherapy, 2009, 53 (3): 1194-1203).\nAfter 5 days of incubation, […] of CellTiter-Glo reagent (Promega Biosciences, Inc., Madison Wis., USA) were added to each well. Cell lysis was carried out at room temperature during 10 min, 150 μl of lysates were transferred in Packard Optiplate 96 well, and luminescence was read on a Fluoroskan (Thermo Scientific).", "units": {"EC50": "µM"}, "values": [{"smiles": "Cc1sc(-c2ccccc2)c(-c2ccc3c4c(ccnc24)CCO3)c1C(OC(C)(C)C)C(=O)O", "note": "(centres unmarked) [Example 61, 2-(tert-butoxy)-2-[2-methyl-4-(2,3-dihydropyrano[4,3,2-de]quinolin-7-yl)-5-phenyl-thiophen-3-yl]acetic acid]", "EC50": 0.21}, {"smiles": "Cc1sc(-c2nsc(Cl)c2C)c(C2=CCC(C)(C)CC2)c1C(OC(C)(C)C)C(=O)O", "note": "(centres unmarked) [Example 62, 2-(tert-butoxy)-2-{2-methyl-4-[4,4-dimethylcyclohex-1-en-1-yl]-5-(5-chloro-4-methyl-isothiazol-3-yl)thiophen-3-yl}acetic acid]", "EC50": 0.82}, {"smiles": "Cc1sc(-c2ccns2)c(C2=CCC(C)(C)CC2)c1C(OC(C)(C)C)C(=O)O", "note": "(centres unmarked) [Example 63, 2-(tert-butoxy)-2-{2-methyl-4-[4,4-dimethylcyclohex-1-en-1-yl]-5-(isothiazol-5-yl)thiophen-3-yl}acetic acid]", "EC50": 0.95}, {"smiles": "CCOC(C(=O)O)c1c(C)sc(-c2ccncc2)c1C1=CCC(C)(C)CC1", "note": "(centres unmarked) [Example 64, 2-[4-(4,4-dimethylcyclohex-1-en-1-yl)-2-methyl-5-(pyridin-4-yl)thiophen-3-yl]-2-ethoxyacetic acid]", "EC50": 0.71}, {"smiles": "CCCc1sc(C)c(C(OC(C)(C)C)C(=O)O)c1-c1ccc2c(c1)CCCO2", "note": "(centres unmarked) [Example 65]", "EC50": 1.4}, {"smiles": "Cc1sc(C2CC2)c(C2=CCC(C)(C)CC2)c1C(OC(C)(C)C)C(=O)O", "note": "(centres unmarked) [Example 66, 2-(tert-butoxy)-2-{2-methyl-4-[4,4-dimethylcyclohex-1-en-1-yl]-5-(cyclopropyl)thiophen-3-yl}acetic acid]", "EC50": 1.1}, {"smiles": "Cc1sc(-c2ccccc2)c(C2=CCC(C)(C)c3cccnc32)c1C(OC(C)(C)C)C(=O)O", "note": "(centres unmarked) [Example 67, 2-(tert-butoxy)-2-[4-(5,5-dimethyl-5,6-dihydroquinolin-8-yl)-2-methyl-5-phenylthiophen-3-yl]acetic acid]", "EC50": 2.3}, {"smiles": "Cc1sc(N2CCCC2=O)c(C2=CCC(C)(C)CC2)c1C(OC(C)(C)C)C(=O)O", "note": "(centres unmarked) [Example 68, 2-(tert-butoxy)-2-{2-methyl-4-[4,4-dimethylcyclohex-1-en-1-yl]-5-(N-pyrrolidinone)thiophen-3-yl}acetic acid]", "EC50": 1.9}, {"smiles": "CCCc1ccnc(-c2sc(C)c(C(OC(C)(C)C)C(=O)O)c2C2=CCC(C)(C)CC2)c1", "note": "(centres unmarked) [Example 71, 2-(tert-butoxy)-2-{2-methyl-4-[4,4-dimethylcyclohex-1-en-1-yl]-5-(4-(n-propyl)pyridin-2-yl)thiophen-3-yl}acetic acid]", "EC50": 1.1}, {"smiles": "Cc1ccnc(-c2sc(C)c(C(OC(C)(C)C)C(=O)O)c2C2=CCC(C)(C)CC2)c1", "note": "(centres unmarked) [Example 72, 2-(tert-butoxy)-2-{2-methyl-4-[4,4-dimethylcyclohex-1-en-1-yl]-5-(4-methylpyridin-2-yl)thiophen-3-yl}acetic acid]", "EC50": 2.3}, {"smiles": "Cc1cccc(-c2sc(C)c(C(OC(C)(C)C)C(=O)O)c2C2=CCC(C)(C)CC2)n1", "note": "(centres unmarked) [Example 73, 2-(tert-butoxy)-2-{2-methyl-4-[4,4-dimethylcyclohex-1-en-1-yl]-5-(6-methylpyridin-2-yl)thiophen-3-yl}acetic acid]", "EC50": 6.9}, {"smiles": "Cc1sc(-c2ccncc2)c(-c2ccc3c4c(ccnc24)CCO3)c1C(OC(C)(C)C)C(=O)O", "note": "(centres unmarked) [Example 74, 2-(tert-butoxy)-2-(2-methyl-4-(2,3-dihydropyrano[4,3,2-de]quinolin-7-yl)-5-(pyridin-4-yl)thiophen-3-yl)acetic acid]", "EC50": 6.8}, {"smiles": "Cc1sc(-c2cc(F)c3c(c2)CCCO3)c(-c2cc(F)c3c(c2)CCCO3)c1C(OC(C)(C)C)C(=O)O", "note": "(centres unmarked) [Example 75, 2-[4,5-bis(8-fluoro-3,4-dihydro-2H-1-benzopyran-6-yl)-2-methylthiophen-3-yl]-2-(tert-butoxy)acetic acid]", "EC50": 2.4}, {"smiles": "Cc1sc(-c2ccc(C(=O)N(C)C)cc2)c(C2=CCC(C)(C)CC2)c1C(OC(C)(C)C)C(=O)O", "note": "(centres unmarked) [Example 76]", "EC50": 3.3}, {"smiles": "Cc1sc(-c2ccc(S(=O)(=O)N(C)C)cc2)c(C2=CCC(C)(C)CC2)c1C(OC(C)(C)C)C(=O)O", "note": "(centres unmarked) [Example 77, 2-(tert-butoxy)-2-[4-(4,4-dimethylcyclohex-1-en-1-yl)-5-[4-(dimethylsulfamoyl)phenyl]-2-methylthiophen-3-yl]acetic acid]", "EC50": 4.4}, {"smiles": "Cc1sc(C2=CCOCC2)c(-c2ccc3c(c2)CCCO3)c1C(OC(C)(C)C)C(=O)O", "note": "(centres unmarked) [Example 78, 2-(tert-butoxy)-2-[4-(3,4-dihydro-2H-1-benzopyran-6-yl)-5-(3,6-dihydro-2H-pyran-4-yl)-2-methylthiophen-3-yl]acetic acid]", "EC50": 4.3}, {"smiles": "COc1ccc(-c2sc(C)c(C(OC(C)(C)C)C(=O)O)c2-c2ccc3c(c2)CCCO3)cn1", "note": "(centres unmarked) [Example 79, 2-(tert-butoxy)-2-[4-(3,4-dihydro-2H-1-benzopyran-6-yl)-5-(6-methoxypyridin-3-yl)-2-methylthiophen-3-yl]acetic acid]", "EC50": 1.5}, {"smiles": "Cc1sc(-c2cnn(Cc3ccccc3)c2)c(-c2ccc3c(c2)CCCO3)c1C(OC(C)(C)C)C(=O)O", "note": "(centres unmarked) [Example 80, 2-[5-(1-benzyl-1H-pyrazol-4-yl)-4-(3,4-dihydro-2H-1-benzopyran-6-yl)-2-methylthiophen-3-yl]-2-(tert-butoxy)acetic acid]", "EC50": 6.2}, {"smiles": "Cc1sc(-c2cccn2C)c(-c2ccc3c(c2)CCCO3)c1C(OC(C)(C)C)C(=O)O", "note": "(centres unmarked) [Example 81, 2-(tert-butoxy)-2-[4-(3,4-dihydro-2H-1-benzopyran-6-yl)-2-methyl-5-(1-methyl-1H-pyrrol-2-yl)thiophen-3-yl]acetic acid]", "EC50": 2.5}, {"smiles": "COC1(C)CC=C(c2c(-c3cnc4c(c3)CCCO4)sc(C)c2C(OC(C)(C)C)C(=O)O)CC1", "note": "(centres unmarked) [Example 82, 2-(tert-butoxy)-2-[4-(4-methoxy-4-methylcyclohex-1-en-1-yl)-2-methyl-5-{2H,3H,4H-pyrano[2,3-b]pyridin-6-yl}thiophen-3-yl]acetic acid]", "EC50": 1}, {"smiles": "Cc1sc(-c2cc(C(F)(F)F)nn2C)c(-c2ccc3c(c2)CCCO3)c1C(OC(C)(C)C)C(=O)O", "note": "(centres unmarked) [Example 83, 2-(tert-butoxy)-2-[4-(3,4-dihydro-2H-1-benzopyran-6-yl)-2-methyl-5-[1-methyl-3-(trifluoromethyl)-1H-pyrazol-5-yl]thiophen-3-yl]acetic acid]", "EC50": 1.7}, {"smiles": "COc1cc(-c2sc(C)c(C(OC(C)(C)C)C(=O)O)c2-c2ccc3c(c2)CCCO3)ccn1", "note": "(centres unmarked) [Example 84, 2-(tert-butoxy)-2-[4-(3,4-dihydro-2H-1-benzopyran-6-yl)-5-(2-methoxy-pyridin-4-yl)-2-methylthiophen-3-yl]acetic acid]", "EC50": 1.5}, {"smiles": "Cc1sc(-n2cccn2)c(-c2ccc3c(c2)CCCO3)c1C(OC(C)(C)C)C(=O)O", "note": "(centres unmarked) [Example 85, 2-(tert-butoxy)-2-[4-(3,4-dihydro-2H-1-benzopyran-6-yl)-2-methyl-5-(1H-pyrazol-1-yl)thiophen-3-yl]acetic acid]", "EC50": 1.9}, {"smiles": "Cc1sc(-c2ccsn2)c(-c2ccc3c(c2)CCCO3)c1C(OC(C)(C)C)C(=O)O", "note": "(centres unmarked) [Example 86, 2-(tert-butoxy)-2-[4-(3,4-dihydro-2H-1-benzopyran-6-yl)-2-methyl-5-(1,2-thiazol-3-yl)thiophen-3-yl]acetic acid]", "EC50": 0.27}, {"smiles": "Cc1sc(-c2cnn(C)c2)c(-c2ccc3c(c2)CCCO3)c1C(OC(C)(C)C)C(=O)O", "note": "(centres unmarked) [Example 88, 2-(tert-butoxy)-2-[4-(3,4-dihydro-2H-1-benzopyran-6-yl)-2-methyl-5-(1-methyl-1H-pyrazol-4-yl)thiophen-3-yl]acetic acid]", "EC50": 1.6}, {"smiles": "Cc1csnc1-c1sc(C)c(C(OC(C)(C)C)C(=O)O)c1C1=CCC(C)(C)CC1", "note": "(centres unmarked) [Example 89, 2-(tert-butoxy)-2-{2-methyl-4-[4,4-dimethylcyclohex-1-en-1-yl]-5-(4-methylisothiazol-3-yl)thiophen-3-yl}acetic acid]", "EC50": 0.86}]}]}
